Results as given in paper PMC6371959 (Antiviral Research, 2018).
Like-named read-outs stand apart in the source and are kept apart here.

Experiments:
[1] = tested on: EBOV minigenome (WT NP); assay: microbe, parasite or virus in culture; assay type: cell-based, Ebola virus (EBOV), Makona strain; conditions: Zaire ebolavirus, read-out: EC50 (reduction in luciferase, EBOV minigenome)
[2] = tested on: Bunyamwera virus (BUNV) minigenome; assay: microbe, parasite or virus in culture; assay type: cell-based; conditions: BSR-T7, read-out: EC50 (BUNV minigenome control)
[3] = tested on: T7FFLuc control (T7 RNA polymerase driven firefly luciferase); assay: cells; assay type: cell-based; conditions: BSR-T7, read-out: EC50 (T7FFLuc control)
[4] = tested on: T7FFLuc control (T7 RNA polymerase driven firefly luciferase); assay: cells; assay type: cell-based; conditions: read-out: EC50 (T7FFLuc control)
[5] = tested on: Huh7-Lunet-T7 cells; conditions: human
[6] = in vitro; conditions: hamster, CC50 (reduction in cell viability, MTT)
[7] = in vitro; conditions: human, CC50 (reduction in cell viability, MTT)
[8] = tested on: EBOV minigenome (WT NP); assay: microbe, parasite or virus in culture; conditions: Zaire ebolavirus; for EC50: BSR-T7, read-out: EC50 (reduction in luciferase, EBOV minigenome)
[9] = tested on: EBOV minigenome (WT NP); assay: in vitro; conditions: hamster
[10] = tested on: influenza NP; conditions: cited from earlier work

O=C(c1cccc(/C=C2\SC(=O)N(Cc3ccccc3)C2=O)c1)N1CCN(c2ccccn2)CC1 [MCCB4]
EC50 [1]: 1.5 µM | EC50 [2]: > 100 µM | EC50 [3]: > 100 µM | EC50 [4]: 30.8 µM | CC50 [5]: 43.2 µM | CC50 [6]: > 100 µM | CC50 [7]: 48.8 µM | EC50 [8]: 4.8 µM | EC90 ([8]; BSR-T7, read-out: EC90 (EBOV minigenome)): 49 µM | inhibition at 4.8 µM ([8]; BSR-T7, read-out: inhibition of luciferase (time course)): 50%

O=C(c1cccc(/C=C2\SC(=O)N(Cc3ccc(F)cc3)C2=O)c1)N1CCN(c2ccccn2)CC1 [MCCB4-12]
EC50 [3]: 49.5 µM | selectivity ratio [9]: 6.5 | CC50 [6]: 64.8 µM | EC50 [8]: 8.8 µM

O=C(c1cccc(/C=C2\SC(=O)N(Cc3cccc(F)c3)C2=O)c1)N1CCN(c2ccccn2)CC1 [MCCB4-8]
EC50 [3]: > 100 µM | selectivity ratio [9]: 4 | CC50 [6]: 46.5 µM | EC50 [8]: 11.2 µM

Cc1onc(-c2ccccc2)c1C(=O)N1CCN(c2ccc([N+](=O)[O-])cc2Cl)CC1 [Nucleozin]
EC50 (influenza, NP aggregation) [10]: nM range
